Blank lines part the entries; values can stand above or below the molecule they belong to.
How the values were obtained:
Homo sapiens [1] = species on record: Homo sapiens; experiment: Ratio of kobs/[l] for human leukocyte elastase and kobs/[l] for chymotrypsin
Homo sapiens [2] = species on record: Homo sapiens; experiment: In vitro inhibition of Serine protease chymotrypsin; set-up: unit not given here
[3] = molecular target: T1, Neutrophil elastase (Homo sapiens) (UniProt P08246); experiment: Inhibition of human leukocyte elastase; set-up: unit not given here
T1 sequence (whole entry): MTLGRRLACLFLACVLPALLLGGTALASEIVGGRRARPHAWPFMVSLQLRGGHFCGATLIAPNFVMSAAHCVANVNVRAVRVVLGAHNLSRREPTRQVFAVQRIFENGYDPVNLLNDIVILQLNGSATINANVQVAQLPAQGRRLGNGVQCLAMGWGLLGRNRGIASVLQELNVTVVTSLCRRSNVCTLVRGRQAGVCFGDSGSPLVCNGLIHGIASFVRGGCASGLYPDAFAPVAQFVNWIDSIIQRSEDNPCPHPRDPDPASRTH

Ratio (Homo sapiens [1]): 8.6
k obs / 1 (Homo sapiens [2]): 6600
k obs / 1 [3]: 57000
Structure (SMILES): COC(=O)CCCC(=O)Nc1ccc2c(c1)C(=O)N(OS(C)(=O)=O)C2=O

Ratio (Homo sapiens [1]): 2.6
k obs / 1 (Homo sapiens [2]): 9600
k obs / 1 [3]: 25000
Structure (SMILES): CCS(=O)(=O)ON1C(=O)c2ccc(NC(=O)CCC(=O)OC)cc2C1=O

Ratio (Homo sapiens [1]): 11
k obs / 1 (Homo sapiens [2]): 5300
k obs / 1 [3]: 56000
Structure (SMILES): CCS(=O)(=O)ON1C(=O)c2ccc(NC(=O)C(=O)OC)cc2C1=O

Ratio (Homo sapiens [1]): 5.6
k obs / 1 (Homo sapiens [2]): 5400
k obs / 1 [3]: 30000
Structure (SMILES): COC(=O)C(=O)Nc1ccc2c(c1)C(=O)N(OS(C)(=O)=O)C2=O

Further lines, the molecule ahead of its results:

Structure (SMILES): CS(=O)(=O)ON1C(=O)c2ccc(NC(=O)/C=C/c3ccccc3)cc2C1=O
Ratio (Homo sapiens [1]): 13
k obs / 1 (Homo sapiens [2]): 1600
k obs / 1 [3]: 20000

Structure (SMILES): CS(=O)(=O)ON1C(=O)c2ccc(NC(=O)c3ccccc3)cc2C1=O
Ratio (Homo sapiens [1]): 6.9
k obs / 1 (Homo sapiens [2]): 3600
k obs / 1 [3]: 25000

Structure (SMILES): CS(=O)(=O)ON1C(=O)c2ccc(N)cc2C1=O
Ratio (Homo sapiens [1]): 9.2
k obs / 1 (Homo sapiens [2]): 12000
k obs / 1 [3]: 110000

Structure (SMILES): CS(=O)(=O)ON1C(=O)c2ccc(NC(=O)CCc3ccccc3)cc2C1=O
Ratio (Homo sapiens [1]): 2
k obs / 1 (Homo sapiens [2]): 4800
k obs / 1 [3]: 9700

Structure (SMILES): CCS(=O)(=O)ON1C(=O)c2ccc(NC(=O)CCCC(=O)OC)cc2C1=O
Ratio (Homo sapiens [1]): 16
k obs / 1 (Homo sapiens [2]): 14000
k obs / 1 [3]: 220000

Structure (SMILES): CCS(=O)(=O)ON1C(=O)c2ccc(N)cc2C1=O
Ratio (Homo sapiens [1]): 4.6
k obs / 1 (Homo sapiens [2]): 13000
k obs / 1 [3]: 60000

Structure (SMILES): CS(=O)(=O)ON1C(=O)c2ccc(NC(=O)c3cccc4ccccc34)cc2C1=O
Ratio (Homo sapiens [1]): 7.6
k obs / 1 (Homo sapiens [2]): 3300
k obs / 1 [3]: 25000

Structure (SMILES): Cc1ccc(S(=O)(=O)N[C@@H](Cc2ccccc2)C(=O)Nc2ccc3c(c2)C(=O)N(OS(C)(=O)=O)C3=O)cc1
Ratio (Homo sapiens [1]): 15
k obs / 1 (Homo sapiens [2]): 11000
k obs / 1 [3]: 160000
